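Grown in 96-well plates, cells were treated for 48 hours with each compound at five concentrations. Insufficient inhibition: endpoint recorded as highest concentration tested. At the GI50, growth is halved.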 Calls of active or inactive are those of the source. No stated cut-off is given here; in the data, active = GI50 up to about 1.1 µM and inactive = higher.
Assays:
Experiment in all cases: DTP human tumour cell line panel, 48 h
[1] = test system: CCRF-CEM
[2] = test system: UACC-257
[3] = test system: Malme-3M
[4] = test system: NCI-H226
[5] = test system: HCT-15
[6] = test system: OVCAR-8
[7] = test system: OVCAR-3
[8] = test system: DMS-114
[9] = test system: SF-539
[10] = test system: MOLT-4
[11] = test system: M19-MEL
[12] = test system: SK-MEL-5
[13] = test system: HOP-62
[14] = test system: UO-31
[15] = test system: SW-620
[16] = test system: SR
[17] = test system: KM12
[18] = test system: RXF 393
[19] = test system: HL-60
[20] = test system: SNB-75
[21] = test system: RPMI-8226
[22] = test system: KM-20L2
[23] = test system: UACC-62
[24] = test system: SNB-19
[25] = test system: K562
[26] = test system: SK-MEL-2
[27] = test system: OVCAR-4
[28] = test system: HOP-18
[29] = test system: U-251
[30] = test system: COLO 205
[31] = test system: IGROV-1
[32] = test system: A498
[33] = test system: SF-268
[34] = test system: 786-0
[35] = test system: SK-MEL-28
[36] = test system: NCI-H460
[37] = test system: TK-10
[38] = test system: DLD-1
[39] = test system: SK-OV-3
[40] = test system: SN12C
[41] = test system: A549
[42] = test system: M14
[43] = test system: HCC 2998
[44] = test system: CAKI-1
[45] = test system: LXFL 529
[46] = test system: DMS-273
[47] = test system: SNB-78
[48] = test system: ACHN
[49] = test system: HCT-116
[50] = test system: XF498
[51] = test system: SF-295
[52] = test system: HT-29
[53] = test system: EKVX
[54] = test system: NCI-H23
[55] = test system: LOX IMVI
[56] = test system: HOP-92
[57] = test system: NCI-H522
[58] = test system: OVCAR-5

In the case of `C[Si](C)(C)OC1(C#N)C2C3CC4C2C(=O)C2C4C3C21` (configuration not stated), the GI50 [1] is reported as > 100 µM (inactive), the GI50 [2] is reported as > 100 µM (inactive) and the GI50 [3] is reported as > 100 µM (inactive). For the same compound, the GI50 [4] was > 100 µM (inactive), the GI50 [5] was > 100 µM and the GI50 [6] was > 100 µM (inactive). For the same compound, the GI50 [7] was > 100 µM (inactive), the GI50 [8] was > 100 µM (inactive) and the GI50 [9] was > 100 µM (inactive). The GI50 [10] was > 100 µM (inactive), the GI50 [11] was > 100 µM (inactive) and the GI50 [12] was > 100 µM (inactive). For the same compound, the GI50 [13] was > 100 µM (inactive), the GI50 [14] was > 100 µM (inactive) and the GI50 [15] was > 100 µM (inactive). For the same compound, the GI50 [16] was > 100 µM (inactive), the GI50 [17] was > 100 µM (inactive) and the GI50 [18] was > 100 µM (inactive). For the same compound, the GI50 [19] was > 100 µM (inactive), the GI50 [20] was > 100 µM (inactive) and the GI50 [21] was > 100 µM (inactive). For the same compound, the GI50 [22] was > 100 µM (inactive), the GI50 [23] was > 100 µM (inactive) and the GI50 [24] was > 100 µM (inactive). The GI50 [25] was > 100 µM (inactive), the GI50 [26] was > 100 µM (inactive) and the GI50 [27] was > 100 µM (inactive). The GI50 [28] was > 100 µM (inactive), the GI50 [29] was > 100 µM (inactive) and the GI50 [30] was > 100 µM (inactive). The GI50 [31] was > 100 µM (inactive), the GI50 [32] was > 100 µM (inactive) and the GI50 [33] was > 100 µM (inactive). The GI50 [34] was > 100 µM (inactive), the GI50 [35] was > 100 µM (inactive) and the GI50 [36] was > 100 µM (inactive). For the same compound, the GI50 [37] was > 100 µM (inactive), the GI50 [38] was > 100 µM (inactive) and the GI50 [39] was > 100 µM (inactive). For the same compound, the GI50 [40] was > 100 µM (inactive), the GI50 [41] was > 100 µM (inactive) and the GI50 [42] was > 100 µM (inactive). The GI50 [43] was > 100 µM (inactive), the GI50 [44] was > 100 µM (inactive) and the GI50 [45] was > 100 µM (inactive). The GI50 [46] was > 100 µM (inactive), the GI50 [47] was > 100 µM (inactive) and the GI50 [48] was > 100 µM (inactive). The GI50 [49] was > 100 µM (inactive).
For `O=c1cc(-c2ccccc2)c2cc3c(=O)ccoc3cc2o1`, the GI50 [1] was 48.1 µM (inactive), the GI50 [2] was > 100 µM (inactive) and the GI50 [50] was > 100 µM (inactive). For the same compound, the GI50 [51] was 42.8 µM (inactive), the GI50 [3] was 81.5 µM (inactive) and the GI50 [4] was 79.1 µM (inactive). The GI50 [5] was > 100 µM, the GI50 [6] was > 100 µM (inactive) and the GI50 [7] was > 100 µM (inactive). For the same compound, the GI50 [8] was 83 µM (inactive), the GI50 [9] was > 100 µM (inactive) and the GI50 [10] was > 100 µM (inactive). The GI50 [11] was > 100 µM (inactive), the GI50 [12] was 43.7 µM (inactive) and the GI50 [13] was 80.4 µM (inactive). For the same compound, the GI50 [14] was > 100 µM (inactive), the GI50 [15] was > 100 µM (inactive) and the GI50 [16] was > 100 µM (inactive). For the same compound, the GI50 [18] was 20 µM (inactive), the GI50 [19] was > 100 µM (inactive) and the GI50 [20] was 14 µM (inactive). For the same compound, the GI50 [52] was > 100 µM (inactive), the GI50 [21] was > 100 µM (inactive) and the GI50 [22] was > 100 µM (inactive). For the same compound, the GI50 [23] was 62.2 µM (inactive), the GI50 [24] was 64.4 µM (inactive) and the GI50 [25] was > 100 µM (inactive). The GI50 [26] was > 100 µM (inactive), the GI50 [27] was > 100 µM (inactive) and the GI50 [53] was > 100 µM (inactive). For the same compound, the GI50 [29] was > 100 µM (inactive), the GI50 [30] was > 100 µM (inactive) and the GI50 [32] was 15.7 µM (inactive). The GI50 [33] was > 100 µM (inactive), the GI50 [34] was > 100 µM (inactive) and the GI50 [54] was > 100 µM (inactive). For the same compound, the GI50 [35] was > 100 µM (inactive), the GI50 [36] was > 100 µM (inactive) and the GI50 [37] was 44.4 µM (inactive). For the same compound, the GI50 [38] was 77.4 µM (inactive), the GI50 [40] was > 100 µM (inactive) and the GI50 [41] was > 100 µM (inactive). The GI50 [42] was > 100 µM (inactive), the GI50 [55] was > 100 µM (inactive) and the GI50 [43] was > 100 µM (inactive). For the same compound, the GI50 [46] was > 100 µM (inactive), the GI50 [48] was 87.9 µM (inactive) and the GI50 [49] was > 100 µM (inactive).
`COS(=O)(=O)OCCC(NC(=O)OCc1ccccc1)C(=O)OCc1ccccc1` (configuration not stated) was tested, and the GI50 [1] was > 100 µM (inactive), the GI50 [2] was > 100 µM (inactive) and the GI50 [51] was > 100 µM (inactive). The GI50 [3] was > 100 µM (inactive), the GI50 [56] was > 100 µM (inactive) and the GI50 [4] was > 100 µM (inactive). The GI50 [5] was > 100 µM, the GI50 [6] was > 100 µM (inactive) and the GI50 [7] was > 100 µM (inactive). The GI50 [8] was > 100 µM (inactive), the GI50 [9] was > 100 µM (inactive) and the GI50 [10] was > 100 µM (inactive). The GI50 [57] was > 100 µM (inactive), the GI50 [11] was > 100 µM (inactive) and the GI50 [12] was > 100 µM (inactive). For the same compound, the GI50 [13] was > 100 µM (inactive), the GI50 [14] was > 100 µM (inactive) and the GI50 [15] was > 100 µM (inactive). The GI50 [17] was > 100 µM (inactive), the GI50 [19] was 53.3 µM (inactive) and the GI50 [20] was 71.6 µM (inactive). The GI50 [52] was 59.2 µM (inactive), the GI50 [21] was > 100 µM (inactive) and the GI50 [22] was > 100 µM (inactive). For the same compound, the GI50 [23] was > 100 µM (inactive), the GI50 [24] was > 100 µM (inactive) and the GI50 [25] was > 100 µM (inactive). For the same compound, the GI50 [26] was > 100 µM (inactive), the GI50 [27] was > 100 µM (inactive) and the GI50 [28] was > 100 µM (inactive). For the same compound, the GI50 [53] was > 100 µM (inactive), the GI50 [29] was > 100 µM (inactive) and the GI50 [30] was > 100 µM (inactive). The GI50 [31] was > 100 µM (inactive), the GI50 [32] was > 100 µM (inactive) and the GI50 [33] was > 100 µM (inactive). The GI50 [34] was > 100 µM (inactive), the GI50 [54] was > 100 µM (inactive) and the GI50 [35] was > 100 µM (inactive). For the same compound, the GI50 [36] was > 100 µM (inactive), the GI50 [37] was > 100 µM (inactive) and the GI50 [38] was > 100 µM (inactive). For the same compound, the GI50 [58] was > 100 µM (inactive), the GI50 [39] was > 100 µM (inactive) and the GI50 [40] was > 100 µM (inactive). For the same compound, the GI50 [41] was > 100 µM (inactive), the GI50 [42] was > 100 µM (inactive) and the GI50 [55] was > 100 µM (inactive). The GI50 [43] was 66.4 µM (inactive), the GI50 [44] was > 100 µM (inactive) and the GI50 [45] was > 100 µM (inactive). For the same compound, the GI50 [46] was > 100 µM (inactive), the GI50 [47] was > 100 µM (inactive) and the GI50 [48] was > 100 µM (inactive). The GI50 [49] was > 100 µM (inactive).

— ChEMBL document CHEMBL1201862, “PubChem BioAssay data set” (2004)
